Assay results published in patent US10195164B2, “Use of disulfiram for inflammatory breast cancer therapy” (Duke University, priority 2015, dated 2019).

Legend:
[1] = system: IBC cells (SUM149, rSUM149); experiment: Cell-associated Cu in cell lysates by ICP-HRMS; assay type: cell-based; conditions: 10 μM Cu, 24 h
Protocol: Cell lysates were prepared as above. For tumors, a portion of each tumor was placed into tissue lysis buffer (GoldBio Technology) and homogenized using the Bullet Blender Storm and lysis beads (MidSci). Lysates were analyzed for Cu content using a Thermo Scientific Element 2 inductively coupled plasma high-resolution mass spectrometer (ICP-HRMS) at the W. M. Keck Elemental Geochemistry Laboratory (University of Michigan, Ann Arbor, Mich.), and Cu content of lysis buffer blank was subtracted from each sample. Values were normalized to protein for reporting as ng Cu/mg protein.

[2] = system: IBC cells; experiment: Trypan blue viability assay, IBC cell lines overall; assay type: cell-based
Protocol: (§1) Cells were treated for 24 h in regular growth medium with Disulfiram (Sigma), CuSO4 (VWR), SOD mimetic (MnTnHex-2-PyP^5+), bathocuproine disulfonate (BCS, Sigma), and tetrathiomolybdate (TM, Sigma). Cell viability was determined by trypan blue exclusion as described previously (Aird et al., 2008) where % viability was calculated as live cells/total cells×100.

[3] = system: ALDH; experiment: ALDEFLUOR assay; assay type: cell-based, human; conditions: SUM149 cells, 24 h, sub-lethal dose
Protocol: ALDH enzymatic activity was assessed using the ALDEFLUOR kit (Stem Cell Technologies) according to the manufacturer's instructions. Briefly, cells were incubated with ALDH substrate for 35 minutes at 37° C. The specific ALDH inhibitor diethylaminobenzaldehyde (DEAB) was used as negative control. Sorting gates were established using 7-AAD stained cells for viability and ALDEFLUOR-stained cells treated with DEAB as negative controls. Dot plots from a representative experiment are shown with mean±SEM from four experiments.

[4] = system: Nrf2; experiment: Nrf2 activity assay (ARE luciferase reporter); assay type: cell-based; conditions: Cu 10 μM, DSF 10-20 μM, DSF-Cu 150 nM
Protocol: Cells in opaque 96-well plates (Greiner Bio-One) were transfected with pGL4.37 (ARE firefly luciferase reporter, Promega) and pGL4.75 (Renilla luciferase control, Promega) plasmids using a 3:1 ratio of […] (Roche Applied Science, Indianapolis, Ind.) to DNA. The next day, cells were treated with as indicated. After 24 h, the Dual-Glo Luciferase Assay System (Promega) was used and luminescence read on a Veritas microplate luminometer (Turner BioSystems). Firefly luminescence was normalized to Renilla luminescence for each sample, and this value normalized to untreated.

[5] = system: rSUM149 cells; experiment: Trypan blue viability assay; assay type: cell-based, human; conditions: for effect of Cu chelator on DSF-Cu-induced cell death: BCS 100 μM, TM 10 μM
Protocol: as §1

[6] = system: SUM149 cells; experiment: Trypan blue viability assay; assay type: cell-based, human; conditions: for effect of Cu chelator on DSF-Cu-induced cell death: BCS 100 μM, TM 10 μM
Protocol: as §1

[7] = system: ctr1/ctr3Δ mutant MPY17 S. cerevisiae cells; experiment: Complementation of S. cerevisiae Cu+-transport mutants; assay type: cell-based, Saccharomyces cerevisiae; conditions: YPEG media, 30° C., 3 days, absorbance at 600 nm
Protocol: SEY6210 (wild type) (Robinson et al., 1988) and ctr1/ctr3Δ mutant MPY17 S. cerevisiae cells (Pena et al., 1998) were grown in YPEG media (3% ethanol, 3% glycerol, 1% yeast extract, 2% Bacto Peptone, 2% agar) with addition of 0-50 μM known Cu ionophore, zinc pyrithione (ZPT) (Reeder et al., 2011), or DSF. Cells were allowed to grow at 30° C. for 3 days; growth was assessed by measuring optical density at 600 nm on a Spectramax Plus 384 plate reader (Molecular Devices).

[8] = accepted daily dosing of 250-500 mg, human plasma; cited from earlier work
[9] = system: tumor xenografts; experiment: Tumor radiation control curve with MnSOD mimic; assay type: in vivo
[10] = system: BCM2 Xenograft brain metastatic cells; conditions: due to upregulation of GSH; cited from earlier work

## O=S(=O)([O-])[O-].[Cu+2] [Cu, CuSO4]
[1]
  Cu accumulation: slight increase
[2]; Cu alone (10 μM), 24 h
  cytotoxicity: not cytotoxic
[3]
  ALDH+ population: neither DSF nor Cu alone affected
[4]
  Nrf2 transcriptional activity: induced Nrf2 transcriptional activity

## [SH-].[SH-].[S]=[Mo]=[S] [TM, tetrathiomolybdate]
[5]
  effect of Cu chelator on DSF-Cu-induced cell death: almost completely blocked DSF-Cu-induced cell death
[6]
  effect of Cu chelator on DSF-Cu-induced cell death: almost completely blocked DSF-Cu-induced cell death

## zinc pyrithione [ZPT]
[7]
  growth of MPY17 cells: grew similarly to the SEY6210 cells

## Cc1cc(-c2ccc(S(=O)(=O)O)cc2)c2ccc3c(-c4ccc(S(=O)(=O)O)cc4)cc(C)nc3c2n1 [BCS, bathocuproine disulphonate]
[5]
  effect of Cu chelator on DSF-Cu-induced cell death: almost completely blocked DSF-Cu-induced cell death
[6]
  effect of Cu chelator on DSF-Cu-induced cell death: almost completely blocked DSF-Cu-induced cell death

## CCN(CC)C(=S)SSC(=S)N(CC)CC [DSF, Disulfiram]
[5]; Homo sapiens, DSF alone, 24 h, trypan blue exclusion
  IC50: 25 to 30 µM
[6]; Homo sapiens, SUM149, DSF alone, 24 h, trypan blue exclusion
  IC50: ~17 µM
[8]
  plasma concentration: < 2000 nM
[2]; DSF alone
  concentrations at which DSF induced toxicity: greater than 10 μM

## MnBuOE
[9]; radiosensitization of xenograft tumors
  dose modifying factor: 1.3
[9]; total RT applied in 5 fractions, treatment pre- and post-RT, saline controls 47Gy
  TCD50 dose: 36.5 Gy

## CC(C)C[C@H](NC(=O)[C@H](Cc1ccccc1)NC(=O)c1cnccn1)B(O)O [bortezomib]
[10]
  fold less sensitive to bortezomib: drugs; brain metastatic cells 60-fold less

## MnTnHexyl-2-PyP^5+
[5]; 100-200 μM SOD mimetic
  effect of SOD mimetic on DSF-Cu cell death: blocked cell death caused by DSF-Cu treatment
